The record followed here is US20230219904A1 (SYNGENTA CROP PROTECTION AG, priority 2020, published 2023).

What all share (assay type): in vivo
Holding throughout (details): applied at 125 g/ha, evaluated after 13 days

In experiment [1] the test system is Amaranthus retoflexus (AMARE). Briefly: Pre-emergence herbicidal glasshouse test (Table B1). In a few lines:
(§1)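 In this pot assay, seedlings or sown soil receive a spray of formulated active ingredient (acetone/water 50:50, 0.5% Tween 20) at 500 g/h unless indicated. Conditions: 24/16° C day/night, 14 hours light, 65% humidity, watering twice daily. Injury is scored after 13 days, 1 (0-19%) to 5 (80-100%).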

The subject of experiment [2] is Abutilon theophrasti (ABUTH). The experiment is described as above. In a few lines:
as §1

In experiment [3] the test system is Echinochloa crus-galh (ECHCG). The experiment is described as above. In a few lines:
as §1

Experiment [4] deals with Setaria faberi (SETFA). The experiment is described as above. In a few lines:
as §1

Experiment [5] concerns Ipomoea hederacea (IPOHE). The description is as above. In a few lines: as §1
Experiment [6] has as its system Amaranthus retoflexus (AMARE). Description: Post-emergence herbicidal glasshouse test (Table B1). An outline of the steps: as §1
The subject of experiment [7] is Abutilon theophrasti (ABUTH). The description is as above. In a few lines:
as §1

Experiment [8] concerns Setaria faberi (SETFA). The experiment is described as above. In a few lines:
as §1

Experiment [9] has as its system Ipomoea hederacea (IPOHE). Described as above. In a few lines: as §1
Experiment [10] has as its system Echinochloa crus-galh (ECHCG). Described as above. An outline of the steps:
as §1

Consider `Cn1nnnc1NC(=O)c1ccc(OC(F)(F)F)c(NC(=O)C2(F)CC2)c1Cl` [Compound 1.054], for which the “PRE Application AMARE, percentage damage on five-point scale” value (shortened to “PRE Application AMARE, percentage damage”) in experiment [1] is recorded as 5 (5=80-100%). The “PRE Application ABUTH, percentage damage on five-point scale” value (shortened to “PRE Application ABUTH, percentage damage”) in [2] is 5 (5=80-100%). Besides, the “PRE Application ECHCG, percentage damage on five-point scale” value in [3] is 5 (5=80-100%). In addition, the “PRE Application SETFA, percentage damage on five-point scale” value (shortened to “PRE Application SETFA, percentage damage”) in the experiment with Setaria faberi (SETFA) [4] is recorded as 5 (5=80-100%). Further, in experiment [5], the “PRE Application IPOHE, percentage damage on five-point scale” value (shortened to “PRE Application IPOHE, percentage damage”) is 4 (4=60-79%). In experiment [6], the “POST Application AMARE, percentage damage on five-point scale” value is 5 (5=80-100%). In [7], the “POST Application ABUTH, percentage damage on five-point scale” value was 5 (5=80-100%). For the same compound, the “POST Application SETFA, percentage damage on five-point scale” value in the experiment with Setaria faberi (SETFA) [8] is on record as 5 (5=80-100%). In [9], the “POST Application IPOHE, percentage damage on five-point scale” value is 5 (5=80-100%).

For `Cn1nnnc1NC(=O)c1ccc(OC(F)F)c(NC(=O)c2cccc(Cl)n2)c1Cl` [Compound 1.083], in experiment [1], the “PRE Application AMARE, percentage damage” value is listed as 5 (5=80-100%). Moreover, the “PRE Application ABUTH, percentage damage” value in [2] was 5 (5=80-100%). In addition, the “PRE Application SETFA, percentage damage” value in the experiment with Setaria faberi (SETFA) [4] is 4 (4=60-79%). The “PRE Application IPOHE, percentage damage” value in experiment [5] is 3 (3=40-59%). Also, the “POST Application AMARE, percentage damage on five-point scale” value in experiment [6] is listed as 4 (4=60-79%). The “POST Application ABUTH, percentage damage on five-point scale” value in experiment [7] is reported as 4 (4=60-79%). In experiment [10], the “POST Application ECHCG, percentage damage on five-point scale” value was 2 (2=20-39%). The “POST Application SETFA, percentage damage on five-point scale” value in the experiment on Setaria faberi (SETFA) [8] was 4 (4=60-79%). For the same compound, the “POST Application IPOHE, percentage damage on five-point scale” value in experiment [9] is 4 (4=60-79%).

For `COc1cccc(C(=O)Nc2c(OC(F)F)ccc(C(=O)Nc3nnnn3C)c2Cl)n1` [Compound 1.085], in experiment [1], the “PRE Application AMARE, percentage damage” value is 4 (4=60-79%). In [2], the “PRE Application ABUTH, percentage damage” value is recorded as 5 (5=80-100%). Moreover, the “PRE Application SETFA, percentage damage” value with Setaria faberi (SETFA) [4] was 3 (3=40-59%). Further, the “PRE Application IPOHE, percentage damage” value in experiment [5] was 3 (3=40-59%). The “POST Application AMARE, percentage damage on five-point scale” value in experiment [6] is given as 4 (4=60-79%). In addition, the “POST Application ABUTH, percentage damage on five-point scale” value in experiment [7] is listed as 4 (4=60-79%). Besides, the “POST Application ECHCG, percentage damage on five-point scale” value in experiment [10] is recorded as 4 (4=60-79%). In addition, in the experiment on Setaria faberi (SETFA) [8], the “POST Application SETFA, percentage damage on five-point scale” value is listed as 4 (4=60-79%). For the same compound, the “POST Application IPOHE, percentage damage on five-point scale” value in experiment [9] is listed as 4 (4=60-79%).

Consider `Cn1nnnc1NC(=O)c1ccc(OC(F)F)c(NC(=O)c2cc(Cl)ccn2)c1Cl` [Compound 1.086], for which the “PRE Application AMARE, percentage damage” value in experiment [1] is 5 (5=80-100%). Also, in experiment [2], the “PRE Application ABUTH, percentage damage” value is 5 (5=80-100%). Moreover, in the experiment on Setaria faberi (SETFA) [4], the “PRE Application SETFA, percentage damage” value is listed as 4 (4=60-79%). Moreover, the “PRE Application IPOHE, percentage damage” value in experiment [5] is given as 4 (4=60-79%). Further, the “POST Application AMARE, percentage damage on five-point scale” value in experiment [6] was 5 (5=80-100%). In experiment [7], the “POST Application ABUTH, percentage damage on five-point scale” value is 4 (4=60-79%). For the same compound, the “POST Application ECHCG, percentage damage on five-point scale” value in experiment [10] is 4 (4=60-79%). In addition, the “POST Application SETFA, percentage damage on five-point scale” value in the experiment on Setaria faberi (SETFA) [8] is recorded as 4 (4=60-79%). Further, in [9], the “POST Application IPOHE, percentage damage on five-point scale” value is 5 (5=80-100%).

`Cn1nnnc1NC(=O)c1ccc(OC(F)F)c(NC(=O)c2ncc(Cl)cc2Cl)c1Cl` [Compound 1.087]: the “PRE Application AMARE, percentage damage” value in experiment [1] is on record as 5 (5=80-100%). The “PRE Application ABUTH, percentage damage” value in experiment [2] is reported as 4 (4=60-79%). Besides, the “PRE Application ECHCG, percentage damage on five-point scale” value in [3] is 1 (1=0-19%). Moreover, in the experiment on Setaria faberi (SETFA) [4], the “PRE Application SETFA, percentage damage” value is listed as 4 (4=60-79%). In addition, the “PRE Application IPOHE, percentage damage” value in experiment [5] is 4 (4=60-79%). Also, the “POST Application AMARE, percentage damage on five-point scale” value in experiment [6] is 4 (4=60-79%). Besides, in experiment [7], the “POST Application ABUTH, percentage damage on five-point scale” value is recorded as 4 (4=60-79%). Besides, the “POST Application SETFA, percentage damage on five-point scale” value in the experiment with Setaria faberi (SETFA) [8] was 4 (4=60-79%). In [9], the “POST Application IPOHE, percentage damage on five-point scale” value was 4 (4=60-79%).

On to `Cn1nnnc1NC(=O)c1ccc(OC(F)F)c(NC(=O)c2nc(Cl)ccc2Cl)c1Cl` [Compound 1.088], for which, in experiment [1], the “PRE Application AMARE, percentage damage” value is listed as 5 (5=80-100%). Also, in experiment [2], the “PRE Application ABUTH, percentage damage” value was 4 (4=60-79%). Besides, the “PRE Application SETFA, percentage damage” value in the experiment with Setaria faberi (SETFA) [4] is on record as 5 (5=80-100%). Further, the “PRE Application IPOHE, percentage damage” value in [5] is listed as 4 (4=60-79%). The “POST Application AMARE, percentage damage on five-point scale” value in experiment [6] was 4 (4=60-79%). Also, in [7], the “POST Application ABUTH, percentage damage on five-point scale” value is reported as 4 (4=60-79%). Moreover, the “POST Application ECHCG, percentage damage on five-point scale” value in experiment [10] is given as 3 (3=40-59%). The “POST Application SETFA, percentage damage on five-point scale” value in the experiment on Setaria faberi (SETFA) [8] is on record as 4 (4=60-79%). Also, in [9], the “POST Application IPOHE, percentage damage on five-point scale” value is 4 (4=60-79%).
